The results in this text go back to article PMC7058665, “GPU-Accelerated Discovery of Pathogen-Derived Molecular Mimics of a T-Cell Insulin Epitope” (Frontiers in Immunology, 2020).

Where no end group is shown, it is not given here.
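Also: T-cell clone rested overnight in 5% FBS medium, then cultured overnight with peptide titrations, MIP-1β released into supernatant measured by ELISA.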

For one test, the system named is InsB4 T-cell clone. The class given is cell-based, human.
Settings: not given
In turn, FLTEWILPL had an EC50 of 5800 nM. Same read-out and setting: under LMLENLLTF stands 2200 nM. Same read-out and setting: with LVLEDILLA the figure was 1400 nM. Compound ALVENQFLL returned an EC50 of 2200 nM. As to MLVEEGLLV, the EC50 came out at 97 nM.

For LQVIRILLA, it took 2600 nM to reach a half-maximal effect (EC50). The same measure, in the same setting: with FLVEQVLFA the figure was 3300 nM.

As for MIVEGFLLL, the EC50 stood at 59 nM. Still for that read-out and setting: with EMLERGLLV the figure was 1600 nM; with LLVEDLLVL, 200 nM. On the same count and under the same terms, under MLIERVMST stands 5600 nM; under LMLERGFII, 950 nM. Still for that read-out and setting: with IMYEGLLFV the figure was 70 nM. The compound MLYENWLLS came in with an EC50 of 1900 nM.

For the compound ITIERILTI, the EC50 was 1800 nM. On the same count and under the same terms, with LLIIGGLLF the figure was 290 nM; with IITEGIMTL, 5900 nM. On the same count and under the same terms, under LLVEGALTG stands 640 nM; under LLEENSPML, 50 nM; under FILEGILTV, 54 nM. Compound MLIEGVLTV yielded an EC50 of 10 nM. On the same count and under the same terms, under MQLENGLLL stands 6.3 nM; under LMVENVPFA, 0.052 nM; under IIVEDSLLV, 1.1 nM.

In turn, ILIERGLTF came in with an EC50 of 79000 nM. Still for that read-out and setting: with LLVERQLVL the figure was 6600 nM. LQVENYLPI displayed an EC50 of 27 nM. Regarding LQVEGAMSV, the midpoint of the response, the EC50, lay at 240 nM. Same read-out and setting: with ILLENGYLL the figure was 600 nM; with MLVEWALVA, 54 nM; with ILIEGILFF, 0.92 nM. The same measure, in the same setting: under LTVEGIFRV stands 1600 nM.

For LILQGVLTM, the EC50 came out at 2600 nM. MIVENVPLL displayed an EC50 of 0.17 nM.

Compound LLVEGAMTV displayed a concentration giving a half-maximal response (EC50) of 42 nM.

As to FLIEGVLTI, the half-maximal effective concentration (EC50) came out at 55 nM. As to MLVEGVLLA, the response was half-maximal at 55 nM (EC50). The same measure, in the same setting: with LLIENFVTG the figure was 5600 nM. Compound IVLEGAMIV gave an EC50 of 130 nM.

Consider LLLERMFLF, for which a half-maximal effect (EC50) was put at 1400 nM. On the same count and under the same terms, under LIEERSPLI stands 6100 nM; under LLLERYFLA, 66 nM. LILERSPTA registered an EC50 of 13000 nM.

LLVENWPLL showed an EC50 of 2.4 nM.

Staying with this test, now noted: 20 top-scoring fungal peptides, Figure 8; overnight, MIP-1β ELISA; NR = no T-cell response; read-out: EC50 of peptide activation of InsB4.
As for LIIEWIFFL, the EC50 came out at 150 nM. Still for that read-out and setting: with IQLENSLFA the figure was 8900 nM; with LQLEGQLLL, 3900 nM; with LIIEWYLIM, 860 nM. The same measure, in the same setting: with LVVEGSLFV the figure was 340 nM; with `CC(C)C[C@H](NC(=O)[C@H](C)NC(=O)[C@H](CCC(=O)O)NC(=O)[C@@H](NC(=O)[C@H](CC(C)C)NC(=O)[C@@H](N)Cc1c[nH]cn1)C(C)C)C(=O)N[C@@H](Cc1ccc(O)cc1)C(=O)N[C@@H](CC(C)C)C(=O)N[C@H](C(=O)O)C(C)C` [reference compound], 1100 nM.

Take IMLENGPFL [top-scoring fungal peptide]: the EC50 was over 10000 nM. Still for that read-out and setting: with FLLERILIV the figure was 960 nM; with MLLEGMMIV, 110 nM. With ILVERALFT [top-scoring fungal peptide], the EC50 is over 10000 nM. Same read-out and setting: with LILENYMFA the figure was 880 nM; with MIIEGFLLI, 130 nM; with MQVEWILTF, 12000 nM. Turning to LLVEDMLLM, the EC50 was determined as 390 nM.

Still in this test, the particulars now being: overnight, MIP-1β ELISA.
“ILLEGILIL [bacterial protein-derived nonamer peptide, Bin 2]”: the “agonist activity on InsB4 in words (relative to index HLVEALYLV)” value is “most potent”.
